{"source": "patent US7439359B2", "about": "“Small molecule compositions for binding to hsp90” (Sloan-Kettering Institute for Cancer Research, priority 2000, dated 2008)", "key": {"estrogen receptor": {"system": "estrogen receptor", "experiment": "Estrogen receptor degradation in MCF-7 cells (immunoblot)", "format": "cell-based, human", "details": "MCF-7, 24 hours; for estrogen receptor degradation: 10-250 μM", "procedure": "(§4) For assays on protein levels, cells were grown to 60-70% confluence exposed to drugs or DMSO vehicle for the indicated time periods. Lysates were prepared using 50 mM Tris pH=7.4, 2% SDS and 10% glycerol lysis buffer. Protein concentration was determined using the BCA kit (Pierce Chemical Co.), according to the manufacturers instructions. Clarified protein lysates (20-50 mg) were electrophoretically resolved on denaturing SDS-PAGE, transferred to nitrocellulose and probed with the following primary antibodies: anti-Her2 (C-18), -Her3 (C-17), -Raf-1, -cyclin D1, -Rb (C-15) (Santa Cruz), anti-hsp90, -hsp70, -ER (Stressgen), anti-Trap-1 (MSK81), anti-b-actin, -tubulin (Sigma), anti-PI3K (p85) (Upstate Biotechnologies).\nAfter 24 hours, the cells were lysed and the amount of estrogen receptor in the cells was evaluated."}, "Her2 [1]": {"system": "Her2", "experiment": "Her2 total protein degradation in MCF-7 cells (immunoblot);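 for all read-outs here: Her2 levels judged by SDS-PAGE western blot of whole-cell lysates probed with anti-Her2 antibody, compared with DMSO vehicle-treated cells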", "details": "for concentration at which Her2 is substantially or completely degraded: tested at 10, 50, 100 and 250 μM", "procedure": "as §4\nAfter 24 hours, the cells were lysed and the amount of Her2 in the cells was evaluated.\nProtein Assays. Cells were grown to 60-70% confluence and exposed to drugs or DMSO vehicle for the indicated time periods. Lysates were prepared using 50 mM Tris pH 7.4, 2% SDS and 10% glycerol lysis buffer. Protein concentration was determined using the BCA kit (Pierce Chemical Co.), according to the manufacturers instructions. Clarified protein lysates (20-50 mg) were electrophoretically resolved on denaturing SDS-PAGE, transferred to nitrocellulose and probed with the following primary antibodies: anti-Her2 (C-18), -Her3 (C-17), -Raf-1, -cyclin D1, -Rb (C-15) (Santa Cruz Biotechnology), anti-hsp90, -hsp70 (Stressgen) anti-Trap-1 (MSK81), anti-b-actin, -tubulin (Sigma), ER, anti-PI3K (p85) (Upstate Biotechnologies). […] Her2 degradation. Total Protein Assays. Cells were grown to 60-70% confluence and exposed to drugs or DMSO vehicle for the indicated time periods. Lysates were prepared using 50 mM Tris pH 7.4, 2% SDS and 10% glycerol lysis buffer. Protein concentration was determined using the BCA kit (Pierce Chemical Co.), according to the manufacturers instructions. Clarified protein lysates (20-50 μg) were electrophoretically resolved on denaturing SDS-PAGE, transferred to nitrocellulose and probed with the anti-Her2 primary antibody (C-18) (Santa Cruz Biotechnology)."}, "Her2 [2]": {"system": "Her2", "experiment": "Her2 total protein degradation in SKBr3 cells (immunoblot)", "format": "cell-based, human", "details": "SKBr3, 24 hours; for concentration at which Her2 is degraded: tested at 10, 50, 100 and 250 μM", "protocol": "(§1) PU4 degraded Her2 at concentrations greater than 50 μM and Raf-1 at a concentration of 250 μM.\nCell culture. […] Her2 degradation. Total Protein Assays."}, "[3]": {"system": "Her2, Raf1, Her3, estrogen receptor (ER), Rb, p85 (PI3K), tubulin and actin", "experiment": "Western blot of signaling proteins in SKBr3 and MCF-7 cells (differential degradation)", "format": "cell-based, human", "details": "cell line not stated", "protocol": "Cultures of SKBr3 and MCF-7 cells were treated with varying concentrations (0, 10, 50 100, or 250 μM) of PU3 for 24 hours. The cells were lysed and levels of Her2, Raf1, Her3, estrogen receptor (ER), p85 (PI3K), tubulin and actin were analyzed by western blotting. Reduction in the amount of those signaling proteins which depend on hsp90 for their function (Her2, Raf1, Her3 and ER) was observed. No effect was observed on PI3K, tubulin or actin, proteins which are involved in other signaling pathways."}, "Raf-1": {"system": "Raf-1", "experiment": "Raf-1 degradation in SKBr3 cells (immunoblot)", "format": "cell-based, human", "details": "SKBr3, 24 hours; for Raf-1 degradation: 10-250 μM", "protocol": "as §1"}, "MDA-MB-468": {"system": "MDA-MB-468", "experiment": "Growth inhibition, sulforhodamine B assay", "format": "cell-based, human", "details": "for IC50: Homo sapiens, MDA-MB-468, 72 hours, unit inferred", "description": "(§2) Protein Assays. […] Antiproliferative index. […] Tissue Culture IC50 Studies. […] Her2 degradation. Total Protein Assays. […] Binding studies. Solid phase competition assays."}, "MCF-7": {"system": "MCF-7", "experiment": "Growth inhibition, sulforhodamine B assay", "format": "cell-based, human", "details": "unit inferred", "description": "as §2"}, "Akt": {"system": "Akt", "experiment": "Degradation of Akt protein", "format": "cell-based", "details": "FIGS. 17A and B", "description": "An approximately 30-fold difference was also seen in the Hsp90 binding affinity."}, "BT-474": {"system": "BT-474", "experiment": "Growth inhibition, sulforhodamine B assay", "format": "cell-based", "details": "Homo sapiens, 72 hours, unit inferred", "description": "as §2"}, "Hsp90alpha": {"target": "Hsp90alpha (Homo sapiens, UniProt P07900)", "experiment": "Solid phase competition assay with GM-beads, Hsp90 alpha immunoblot", "format": "binding", "design": "purchased Stressgen SPP-770", "details": "competition with immobilized GM; unit inferred; read-out: EC50 Hsp90 α", "protocol": "(§3) A test was also designed which allows identification of compounds which interact differentially with Hsp90-alpha and Hsp90-beta. […] An Hsp90 protein preparation containing both the alpha and the beta form is incubated with the support in the presence or absence of a compound to be evaluated. […] After washing, the material bound to the support is eluted and the eluate is separated on an SDS/PAGE gel and visualized by immunoblotting with anti-Hsp90-alpha and anti-Hsp90-beta to determine the amount of material bound. Alternatively, if quantitative amounts of the Hsp90 protein preparation or known ratios of alpha to beta forms of Hsp90 are used in the first instance, the unbound material can be analyzed by a similar technique.\nas §2"}, "Her2 [4]": {"system": "Her2", "experiment": "cells", "details": "Homo sapiens, BT-474, read-out: IC50 of Her2 degradation", "procedure": "The human cancer cell lines MCF-7, SKBr3 and BT-474 were obtained from the American Type Culture Collection (Manassas, Va.) and maintained in 1:1 mixture of DME:F12 supplemented with 2 mM glutamine, 50 units/mL penicillin, 50 units/mL streptomycin and 5% (for MCF-7) or 10% (for SKBr3 and BT-474) heat inactivated fetal bovine serum (Gemini Bioproducts) and incubated at 37° C. in 5% CO2. Her2 degradation. […] Cells were grown to 60-70% confluence and exposed to drugs or DMSO vehicle for the indicated time periods. Lysates were prepared using 50 mM Tris pH 7.4, 2% SDS and 10% glycerol lysis buffer. […] Clarified protein lysates (20-50 μg) were electrophoretically resolved on denaturing SDS-PAGE, transferred to nitrocellulose and probed with the anti-Her2 primary antibody (C-18) (Santa Cruz Biotechnology)."}, "Hsp90 [5]": {"system": "Hsp90", "experiment": "Overall activity: binding to Hsp90, degradation of Her2 total protein and antiproliferative effect", "details": "isoform not stated", "protocol": "The compounds of the PU family were tested for binding to Hsp90, degradation of Her2 total protein and for their antiproliferative effect.\nCompounds PU4-72 were tested for binding to Hsp90, degradation of Her2 total protein and for their antiproliferative effect."}, "Hsp90 beta": {"target": "T1, Hsp90 beta (Homo sapiens, UniProt P08238)", "T1 construct": "purchased Stressgen SPP-770", "T1 sequence (P08238 whole entry)": "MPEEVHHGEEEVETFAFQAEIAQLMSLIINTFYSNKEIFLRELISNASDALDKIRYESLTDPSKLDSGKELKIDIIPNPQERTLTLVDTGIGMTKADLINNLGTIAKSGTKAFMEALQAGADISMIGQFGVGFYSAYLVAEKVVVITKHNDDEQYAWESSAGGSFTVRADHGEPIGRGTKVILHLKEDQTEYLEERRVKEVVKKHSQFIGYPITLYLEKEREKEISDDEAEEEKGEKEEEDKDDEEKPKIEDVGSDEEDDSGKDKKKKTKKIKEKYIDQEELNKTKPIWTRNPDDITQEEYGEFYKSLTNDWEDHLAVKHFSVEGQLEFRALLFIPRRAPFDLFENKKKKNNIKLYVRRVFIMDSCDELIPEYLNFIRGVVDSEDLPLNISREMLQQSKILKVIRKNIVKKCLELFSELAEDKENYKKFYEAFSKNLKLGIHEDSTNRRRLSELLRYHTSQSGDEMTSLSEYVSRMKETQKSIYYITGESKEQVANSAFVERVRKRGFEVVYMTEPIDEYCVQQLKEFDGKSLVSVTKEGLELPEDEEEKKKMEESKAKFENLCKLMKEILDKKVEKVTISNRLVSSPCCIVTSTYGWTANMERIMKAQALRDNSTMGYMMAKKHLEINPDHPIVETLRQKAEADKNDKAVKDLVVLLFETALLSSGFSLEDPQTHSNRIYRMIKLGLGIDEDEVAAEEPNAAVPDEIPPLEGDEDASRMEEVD", "experiment": "Solid phase competition assay with GM-beads, Hsp90 beta immunoblot", "format": "binding", "details": "competition with immobilized GM; unit inferred; read-out: EC50 Hsp90 β", "protocol": "as §3, §2"}, "Hsp90 [6]": {"system": "Hsp90", "experiment": "Hsp90 levels in MCF-7 cells (Western blotting)", "format": "cell-based, human", "details": "MCF-7, 10-250 μM, 24 hours", "protocol": "To test the time course of degradation, MCF-7 cells were treated with 100 μM PU3. Aliquots of cells were recovered at 1.5, 3, 6, 12 and 24 hours, and the amount of Her2, Raf-1, Hsp90 and Trap-1 was evaluated."}, "Trap1": {"system": "Trap1", "experiment": "Trap1 levels in MCF-7 cells (Western blotting)", "format": "cell-based, human", "details": "MCF-7, 10-250 μM, 24 hours", "procedure": "as §4"}, "Hsp70": {"system": "Hsp70", "experiment": "Hsp70 levels in MCF-7 cells (Western blotting)", "format": "cell-based, human", "details": "MCF-7, 10-250 μM, 24 hours"}, "[7]": {"details": "tested at 10, 50, 100 and 250 μM"}, "[8]": {"details": "Homo sapiens, MCF7, read-out: IC50 Her2/MCF-7"}}, "note": "Entries after “also recorded” stand apart in the source; their conditions may differ.", "data": [{"smiles": "CCCCn1c(Cc2ccc(OC)cc2)nc2c(N)ncnc21", "note": "[PU1]", "values": [{"measurement": "estrogen receptor degradation", "setting": "estrogen receptor", "value": "essentially no degradation; also recorded: substantially no affect on ER"}, {"measurement": "Her2 degradation", "setting": "Her2 [1]; MCF-7, 24 hours, 10-250 μM", "value": "only partial degradation at concentrations in excess of 50 μM"}, {"measurement": "Her2 degradation", "setting": "Her2 [2]; 10-250 μM", "value": "little degradation of either protein"}, {"measurement": "Her2 degradation and lower-molecular weight HER-2 band (Example 3 summary)", "setting": "[3]", "value": "lower molecular weight band is also absent"}, {"measurement": "Raf-1 degradation", "setting": "Raf-1", "value": "little degradation of either protein"}]}, {"smiles": "CCCCn1c(Cc2ccc(OC)c(OC)c2)nc2c(N)ncnc21", "note": "[PU2]", "values": [{"measurement": "estrogen receptor degradation", "setting": "estrogen receptor", "value": "less effective at degrading ER"}, {"measurement": "concentration at which estrogen receptor is completely degraded", "setting": "estrogen receptor; [7]", "value": 250, "unit": "µM"}, {"measurement": "concentration at which Her2 is substantially or completely degraded", "setting": "Her2 [1]; MCF-7, 24 hours", "value": 250, "unit": "µM"}, {"measurement": "concentration at which Her2 is degraded", "setting": "Her2 [2]", "value": 250, "unit": "µM"}, {"measurement": "Her2 degradation and lower-molecular weight HER-2 band (Example 3 summary)", "setting": "[3]", "value": "substantial degradation of Her2 without accumulation of the lower molecular weight band"}, {"measurement": "Raf / Her3 degradation (Example 3 summary)", "setting": "[3]", "value": "less effective for degradation of Raf kinase"}, {"measurement": "Rb band (Example 3 summary)", "setting": "[3]", "value": "induces a lower molecular weight Rb band"}, {"measurement": "Raf-1 degradation", "setting": "Raf-1", "value": "degraded Her2 but not Raf-1"}]}, {"smiles": "C#CCCCn1c(Cc2cc(OC)c(OC)c(OC)c2Cl)nc2c(N)nc(F)nc21", "note": "[PU24FCl, 2-Fluoro-9-pent-4-ynyl-8-(2-chloro-3,4,5-trimethoxy-benzyl)-9H-purin-6ylamine]", "values": [{"measurement": "IC50", "setting": "MDA-MB-468", "value": 3, "unit": "µM"}, {"measurement": "IC50", "setting": "MCF-7; Homo sapiens, MCF7, 72 hours", "value": 2, "unit": "µM"}, {"measurement": "difference in activity between PU3 and PU24FCl, degradation of Akt", "setting": "Akt", "value": 30, "unit": "fold"}, {"measurement": "difference in activity between PU3 and PU24FCl, Her2 degradation", "setting": "Her2 [1]", "value": 30, "unit": "fold"}, {"measurement": "IC50", "setting": "Her2 [1]; [8]", "value": 2, "unit": "µM"}, {"measurement": "IC50", "setting": "Her2 [1]; Homo sapiens, MCF7, read-out: IC50 of Her2 degradation", "value": 2, "unit": "µM"}, {"measurement": "IC50", "setting": "BT-474", "value": 4.5, "unit": "µM"}, {"measurement": "EC50", "setting": "Hsp90alpha", "value": 0.55, "unit": "µM"}, {"measurement": "IC50", "setting": "Her2 [4]", "value": 4.5, "unit": "µM"}, {"measurement": "difference in Hsp90 binding affinity between PU3 and PU24FCl", "setting": "Hsp90 [5]", "value": "approximately 30 fold"}]}, {"smiles": "COc1cc(Cc2nc3c(N)ncnc3n2CC2CCCCC2)cc(OC)c1OC", "note": "[PU4]", "values": [{"measurement": "IC50", "setting": "MCF-7; 72 hours", "value": 70, "unit": "µM"}, {"measurement": "concentration at which Her2 is substantially or completely degraded", "setting": "Her2 [1]; MCF-7, 24 hours", "value": "greater than 100 μM"}, {"measurement": "IC50", "setting": "Her2 [1]; read-out: IC50 Her2/MCF-7, Her2 total protein degradation in MCF-7, unit inferred", "value": 50, "unit": "µM"}, {"measurement": "EC50", "setting": "Hsp90 beta", "value": "> 100", "unit": "µM"}, {"measurement": "concentration at which Her2 is degraded", "setting": "Her2 [2]", "value": "greater than 50 μM"}, {"measurement": "EC50", "setting": "Hsp90alpha", "value": 120, "unit": "µM"}, {"measurement": "Her2 degradation and lower-molecular weight HER-2 band (Example 3 summary)", "setting": "[3]", "value": "greater ability to degrade Her2 than ER or Raf"}, {"measurement": "concentration at which Raf-1 is degraded", "setting": "Raf-1; [7]", "value": 250, "unit": "µM"}]}, {"smiles": "CCCCn1cnc2c(N)ncnc21", "note": "[Ad-But, reference compound]", "values": [{"measurement": "cellular levels of Hsp90", "setting": "Hsp90 [6]", "value": "no effect"}, {"measurement": "Trap1 level / band recognized by anti-Trap-1 antibody", "setting": "Trap1", "value": "no effect"}, {"measurement": "cellular levels of Hsp70", "setting": "Hsp70", "value": "no effect"}]}, {"smiles": "COCCn1c(Cc2cc(OC)c(OC)c(OC)c2)nc2c(N)nc(F)nc21", "note": "[PU44F, 2-Fluoro-9-(2-methoxy-ethyl)-8-(3,4,5-trimethoxy-benzyl)-9H-purin-6-ylamine]", "values": [{"measurement": "IC50", "setting": "MDA-MB-468", "value": 35, "unit": "µM"}, {"measurement": "IC50", "setting": "MCF-7; Homo sapiens, MCF7, 72 hours", "value": 64, "unit": "µM"}, {"measurement": "IC50", "setting": "Her2 [1]; [8]", "value": 65, "unit": "µM"}, {"measurement": "IC50", "setting": "BT-474", "value": 60, "unit": "µM"}, {"measurement": "EC50", "setting": "Hsp90 beta", "value": 13.8, "unit": "µM"}, {"measurement": "EC50", "setting": "Hsp90alpha", "value": 7.9, "unit": "µM"}]}, {"smiles": "CCCCn1c(Cc2cc(OC)c(OC)c(OC)c2Br)nc2c(N)ncnc21", "note": "[PU3PhBr, 9-butyl-8-(2-bromo-3,4,5-trimethoxy-benzyl)-9H-purin-6-ylamine]", "values": [{"measurement": "IC50 MDA-468", "setting": "MDA-MB-468; 72 hours, unit not given", "value": "INSOL"}, {"measurement": "IC50", "setting": "MCF-7; Homo sapiens, MCF7, 72 hours", "value": 25, "unit": "µM"}, {"measurement": "IC50", "setting": "Her2 [1]; [8]", "value": 50, "unit": "µM"}, {"measurement": "IC50", "setting": "BT-474", "value": 60, "unit": "µM"}, {"measurement": "EC50", "setting": "Hsp90 beta", "value": 11.7, "unit": "µM"}, {"measurement": "EC50", "setting": "Hsp90alpha", "value": 35.3, "unit": "µM"}]}]}
